Laboratory results published in ChEMBL document CHEMBL1129522, “Inhibitors of acyl-CoA:cholesterol O-acyltransferase. 17. Structure-activity relationships of several series of compounds derived from N-chlorosulfonyl isocyanate” (J Med Chem, 1996).
“And” between values parts separate entries of the source, which are not always exact repeats. Equal values may be shown once.

Tests used:
[1] = target: T1, Sterol O-acyltransferase 1 (Rattus norvegicus, UniProt O70536); assay: In vitro inhibitory activity against acyl coenzyme A:cholesterol acyltransferase 1 in microsomes of rat liver
T1 sequence (O70536 whole entry): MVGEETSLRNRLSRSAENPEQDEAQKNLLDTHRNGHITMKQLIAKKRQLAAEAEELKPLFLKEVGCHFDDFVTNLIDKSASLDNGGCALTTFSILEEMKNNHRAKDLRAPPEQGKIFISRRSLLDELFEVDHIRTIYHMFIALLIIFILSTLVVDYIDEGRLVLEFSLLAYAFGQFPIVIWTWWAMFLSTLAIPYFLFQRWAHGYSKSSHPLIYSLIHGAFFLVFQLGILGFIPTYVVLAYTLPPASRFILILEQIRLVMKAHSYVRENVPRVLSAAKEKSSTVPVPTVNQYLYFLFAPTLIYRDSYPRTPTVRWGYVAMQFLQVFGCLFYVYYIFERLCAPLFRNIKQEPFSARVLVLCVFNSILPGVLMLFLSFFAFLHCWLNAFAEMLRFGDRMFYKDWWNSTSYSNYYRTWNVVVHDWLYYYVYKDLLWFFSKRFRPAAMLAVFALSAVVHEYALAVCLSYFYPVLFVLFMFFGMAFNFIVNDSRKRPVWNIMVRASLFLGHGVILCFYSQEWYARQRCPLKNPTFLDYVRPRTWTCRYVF

[2] = target: T2, Sterol O-acyltransferase 1 (Rattus norvegicus) (UniProt O70536); assay: Chronic in vivo activity was measured by the concentration of high density lipoproteins (HDL) in cholesterol fed rats; type: functional, organism-based
T2 sequence (whole entry): T1 sequence (O70536 whole entry)

[3] = target: T2, Sterol O-acyltransferase 1 (Rattus norvegicus); assay: Chronic in vivo activity was measured by the total cholesterol concentration levels in cholesterol fed rats; type: functional, organism-based
[4] = target: T2, Sterol O-acyltransferase 1 (Rattus norvegicus); assay: Acute in vivo activity was measured by the total plasma cholesterol concentration levels(TC) at dose 50 mg/kg; type: functional, organism-based; parameters: dose 50 mg/kg
[5] = target: T2, Sterol O-acyltransferase 1 (Rattus norvegicus); assay: Acute in vivo activity was measured by the total plasma cholesterol concentration levels(TC) at dose 3 mg/kg; type: functional, organism-based; parameters: dose 3 mg/kg
[6] = target: T2, Sterol O-acyltransferase 1 (Rattus norvegicus); assay: Chronic in vivo activity was measured by the total cholesterol concentration levels in Cholesterol-Fed Rats; type: functional, organism-based
[7] = tested on: Rattus norvegicus; assay: Acute in vivo activity measured by total plasma cholesterol concentration levels (TC) at 30 mg/kg dose; type: functional

Structure (SMILES)	IC50 [1]	Delta HDL [2]	Delta TC [3]	Delta TC [4]	Delta TC [5]	Delta TC [6]	Delta TC [7]
Cc1cc(C(C)(C)C)c(OC(=O)NS(=O)(=O)Nc2c(C(C)C)cccc2C(C)C)c(C(C)(C)C)c1	13.5 µM	156%	-38%	-56%	–	–	–
CC(C)c1cccc(C(C)C)c1NC(=O)NS(=O)(=O)NC1c2ccccc2-c2ccccc21	25 µM	–	–	-4%	–	–	–
CC(C)c1cccc(C(C)C)c1OC(=O)NS(=O)(=O)NCC(c1ccccc1)c1ccccc1	49 µM	–	–	-29%	–	–	–
CC(C)c1cccc(C(C)C)c1NC(=O)NS(=O)(=O)N(C(C)C)C(C)C	0.24 µM	83%	-38%	-59%	–	–	–
CCCCN(CCCC)S(=O)(=O)NC(=O)Nc1c(C(C)C)cccc1C(C)C	–	–	-52% and -40%	-66%	-64% and -52%	–	–
Cc1cc(C(C)(C)C)c(OC(=O)NS(=O)(=O)NC(c2ccccc2)c2ccccc2)c(C(C)(C)C)c1	11.5 µM	100%	-25%	-42%	–	–	–
CC(C)c1cccc(C(C)C)c1NC(=O)NS(=O)(=O)N(Cc1ccccc1)C(C)C	0.4 µM	150%	-41%	-60%	–	–	–
CC(C)(C)c1cccc(C(C)(C)C)c1OC(=O)NS(=O)(=O)N(Cc1ccccc1)Cc1ccccc1	11 µM	–	–	-3%	–	–	–
CC(C)c1cccc(C(C)C)c1NC(=O)NS(=O)(=O)NCC(c1ccccc1)c1ccccc1	5.9 µM	–	–	-20%	–	–	–
Cc1cc(C(C)(C)C)c(OC(=O)NS(=O)(=O)NCC(c2ccccc2)c2ccccc2)c(C(C)(C)C)c1	24.4 µM	144%	-51%	-54%	–	–	–
CC(C)c1cccc(C(C)C)c1OC(=O)NS(=O)(=O)NC(c1ccccc1)c1ccccc1	10.6 µM	–	–	46%	–	–	–
CC(C)c1cccc(C(C)C)c1NS(=O)(=O)NC(=O)Oc1c(C(C)(C)C)cccc1C(C)(C)C	16.8 µM	200%	–	-57%	–	-28%	–
CC(C)c1cccc(C(C)C)c1NS(=O)(=O)NC(=O)Oc1c(C(C)C)cccc1C(C)C	25.8 µM	388%	-9%	-65%	–	–	–
CC(C)c1cccc(C(C)C)c1OC(=O)NS(=O)(=O)Nc1nc2ccccc2[nH]1	52 µM	–	–	8%	–	–	–
CC(C)c1cccc(C(C)C)c1NC(=O)NS(=O)(=O)Nc1c(C(C)C)cccc1C(C)C	11 µM	80%	-37%	-54%	–	–	–
CC(C)(C)c1cccc(C(C)(C)C)c1OC(=O)NS(=O)(=O)NCC(c1ccccc1)c1ccccc1	21.8 µM	–	–	-32%	–	–	–
CC(C)c1cccc(C(C)C)c1OC(=O)NS(=O)(=O)Nc1ccccc1	38.1 µM	240%	-33%	-55%	–	–	–
CC(C)(C)c1cccc(C(C)(C)C)c1OC(=O)NS(=O)(=O)NC(c1ccccc1)c1ccccc1	11.4 µM	50%	–	-35%	–	-46%	–
CC(C)(C)c1cccc(C(C)(C)C)c1OC(=O)NS(=O)(=O)Nc1ccccc1	19 µM	–	–	-26%	–	–	–
Cc1cc(C(C)(C)C)c(OC(=O)NS(=O)(=O)Nc2ccccc2)c(C(C)(C)C)c1	23.4 µM	–	–	-33%	–	–	–
CC(C)c1cccc(C(C)C)c1NC(=O)NS(=O)(=O)NC(c1ccccc1)c1ccccc1	4.1 µM	–	–	-14%	–	–	–
CC(C)c1cc(C(C)C)c(NC(=O)NS(=O)(=O)Oc2c(C(C)C)cccc2C(C)C)c(C(C)C)c1	23 µM	18%	-59%	–	-51%	–	-68%
